# Results taken from PubChem BioAssay AID248 (DTP/NCI, 2004).
# Several values for one entry are separate records, joined by “and”; a condition that tells them apart may be missing. Equal values may be shown once. Toxic doses and inconclusive results are not listed.
# System: L1210 leukemia ip in BDF1 mice, survival T/C
# Assay: NCI In Vivo Anticancer Drug Screen. Data for tumor model L1210 Leukemia (intraperitoneal) in B6D2F1 (BDF1) mice
# Conditions: endpoint: mean survival time, higher = longer survival
# How it was run: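 Ratio derived from survival: compound-dosed mice over vehicle-dosed mice, all bearing a transplantable tumor.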
# [1] = dose: 100.0 mg/kg/injection, schedule: Q04DX003 (ip), vehicle: saline with Tween-80
# [2] = dose: 200.0 mg/kg/injection, schedule: Q04DX003 (ip), vehicle: saline with Tween-80
# [3] = dose: 100.0 mg/kg/injection, schedule: Q01DX009 (ip), vehicle: Klucel (hydroxypropylcellulose) (HPC)
# [4] = dose: 200.0 mg/kg/injection, schedule: Q01DX009 (ip), vehicle: Klucel (hydroxypropylcellulose) (HPC)
# [5] = dose: 12.5 mg/kg/injection, schedule: Q04DX003 (ip), vehicle: saline
# [6] = dose: 100.0 mg/kg/injection, schedule: Q04DX003 (ip), vehicle: saline
# [7] = dose: 200.0 mg/kg/injection, schedule: Q04DX003 (ip), vehicle: saline
# [8] = dose: 400.0 mg/kg/injection, schedule: Q04DX003 (ip), vehicle: saline
# [9] = dose: 100.0 mg/kg/injection, schedule: Q04DX003 (ip), vehicle: acetone
# [10] = dose: 200.0 mg/kg/injection, schedule: Q04DX003 (ip), vehicle: acetone
# [11] = dose: 400.0 mg/kg/injection, schedule: Q04DX003 (ip), vehicle: acetone
smiles,measurement,setting,value
Nc1ccccc1CC(C(=O)O)c1ccc2c(c1)OCO2 (stereo unspecified),T/C,"dose: 75.0 mg/kg/injection, schedule: Q01DX001 (ip), vehicle: saline",105 % of control
same,T/C,"dose: 75.0 mg/kg/injection, schedule: Q01DX009 (ip), vehicle: acetone",108 % of control
same,T/C,"dose: 150.0 mg/kg/injection, schedule: Q01DX001 (ip), vehicle: saline",94 % of control
same,T/C,"dose: 150.0 mg/kg/injection, schedule: Q01DX009 (ip), vehicle: acetone",103 % of control
same,T/C,"dose: 300.0 mg/kg/injection, schedule: Q01DX001 (ip), vehicle: saline",89 % of control
same,T/C,"dose: 300.0 mg/kg/injection, schedule: Q01DX009 (ip), vehicle: acetone",103 % of control
COc1c(O)cc2c(c1OC)-c1ccc(OC)c(=O)cc1C(NC=O)CC2 (stereo unspecified),T/C,[1],116 % of control
same,T/C,[2],93 % of control
CCOP(=O)(NC(C)(C)C)OCC,T/C,"dose: 50.0 mg/kg/injection, schedule: Q01DX001 (ip), vehicle: carboxymethylcellulose (CMC)",107 % of control
same,T/C,"dose: 100.0 mg/kg/injection, schedule: Q01DX001 (ip), vehicle: carboxymethylcellulose (CMC)",107 % of control
same,T/C,"dose: 200.0 mg/kg/injection, schedule: Q01DX001 (ip), vehicle: carboxymethylcellulose (CMC)",105 % of control
same,T/C,"dose: 400.0 mg/kg/injection, schedule: Q01DX001 (ip), vehicle: carboxymethylcellulose (CMC)",100 % of control
Cc1cc(C(=O)O)c(C)n1-c1cccc(C(=O)O)c1,T/C,"dose: 50.0 mg/kg/injection, schedule: Q01DX009 (ip), vehicle: Klucel (hydroxypropylcellulose) (HPC)",102 % of control
same,T/C,"dose: 100.0 mg/kg/injection, schedule: Q01DX001 (ip), vehicle: Klucel (hydroxypropylcellulose) (HPC)",94 % of control
same,T/C,[3],102 % of control
same,T/C,"dose: 200.0 mg/kg/injection, schedule: Q01DX001 (ip), vehicle: Klucel (hydroxypropylcellulose) (HPC)",102 % of control
same,T/C,[4],89 % of control
same,T/C,"dose: 400.0 mg/kg/injection, schedule: Q01DX001 (ip), vehicle: Klucel (hydroxypropylcellulose) (HPC)",91 % of control
O=C(CNC(=O)c1ccc(Cl)cc1Cl)N/N=C/c1cccc([N+](=O)[O-])c1,T/C,"dose: 12.5 mg/kg/injection, schedule: Q01DX009 (ip), vehicle: saline with Tween-80",96 % of control
same,T/C,"dose: 50.0 mg/kg/injection, schedule: Q01DX009 (ip), vehicle: saline with Tween-80",89 % of control
O=C1c2cc(-c3ccccc3)ccc2C(c2ccccc2)C1NC1CCCCC1 (stereo unspecified),T/C,"dose: 37.5 mg/kg/injection, schedule: Q01DX001 (ip), vehicle: Klucel (hydroxypropylcellulose) (HPC)",89 % of control
same,T/C,"dose: 75.0 mg/kg/injection, schedule: Q01DX001 (ip), vehicle: Klucel (hydroxypropylcellulose) (HPC)",89 % of control
same,T/C,"dose: 150.0 mg/kg/injection, schedule: Q01DX001 (ip), vehicle: Klucel (hydroxypropylcellulose) (HPC)",89 % of control
COC(=O)c1cc(=O)[nH]n1C,T/C,[3],104 % of control
same,T/C,[4],104 % of control
same,T/C,"dose: 400.0 mg/kg/injection, schedule: Q01DX009 (ip), vehicle: Klucel (hydroxypropylcellulose) (HPC)",101 % of control
O=Nc1ccc(NO)c2ccccc12,T/C,[5],108 % of control
same,T/C,"dose: 25.0 mg/kg/injection, schedule: Q04DX003 (ip), vehicle: saline + alcohol",100 % of control
same,T/C,"dose: 25.0 mg/kg/injection, schedule: Q04DX003 (ip), vehicle: saline",102 % of control
same,T/C,"dose: 50.0 mg/kg/injection, schedule: Q04DX003 (ip), vehicle: saline + alcohol",100 % of control
same,T/C,"dose: 50.0 mg/kg/injection, schedule: Q04DX003 (ip), vehicle: saline",100 % of control
same,T/C,"dose: 100.0 mg/kg/injection, schedule: Q04DX003 (ip), vehicle: saline + alcohol",96 % of control
same,T/C,[6],99 % of control
CC(=O)NC1=C(Nc2ccc(-c3ccc(NC4=C(NC(C)=O)C(=O)c5ccccc5C4=O)cc3)cc2)C(=O)c2ccccc2C1=O,T/C,"dose: 3.12 mg/kg/injection, schedule: Q04DX003 (ip), vehicle: saline",96 % of control
same,T/C,"dose: 4.5 mg/kg/injection, schedule: Q01DX009 (ip), vehicle: saline",101 % of control
same,T/C,"dose: 6.25 mg/kg/injection, schedule: Q04DX003 (ip), vehicle: saline",98 % of control
same,T/C,"dose: 9.0 mg/kg/injection, schedule: Q01DX009 (ip), vehicle: saline",101 % of control
same,T/C,"dose: 12.5 mg/kg/injection, schedule: Q01DX001 (ip), vehicle: saline",95 % of control
same,T/C,[5],98 % of control
same,T/C,"dose: 18.0 mg/kg/injection, schedule: Q04DX003 (ip), vehicle: saline",87 % of control
CCN1OCC(C)(C(=O)OC)C1C (stereo unspecified),T/C,[6],102 % of control
same,T/C,[7],97 % of control
same,T/C,[8],107 % of control
CCCCNC(=O)N(CC)C(=NCC)c1ccc(NC(=O)c2ccc(C(=O)Nc3ccc(C(=NCC)N(CC)C(=O)NCCCC)cc3)cc2)cc1,T/C,"dose: 3.12 mg/kg/injection, schedule: Q01DX015 (ip), vehicle: methylcellulose (MC)",109 % of control
same,T/C,"dose: 6.25 mg/kg/injection, schedule: Q01DX015 (ip), vehicle: methylcellulose (MC)",121 % of control
same,T/C,"dose: 12.5 mg/kg/injection, schedule: Q01DX015 (ip), vehicle: methylcellulose (MC)",178 % of control
same,T/C,"dose: 25.0 mg/kg/injection, schedule: Q01DX015 (ip), vehicle: methylcellulose (MC)",120 % of control
CCCN=C(N)C(N)=NCCC,T/C,"dose: 100.0 mg/kg/injection, schedule: Q01DX009 (ip), vehicle: saline",91 % of control
same,T/C,[6],98 % of control
same,T/C,"dose: 200.0 mg/kg/injection, schedule: Q01DX009 (ip), vehicle: saline",92 % of control
same,T/C,[7],98 % of control
same,T/C,[8],91 % of control
NC(c1ccccc1)C(C(=O)O)C(=O)O (stereo unspecified),T/C,"dose: 75.0 mg/kg/injection, schedule: Q04DX003 (ip), vehicle: saline",95 % of control
same,T/C,"dose: 150.0 mg/kg/injection, schedule: Q04DX003 (ip), vehicle: saline",94 % of control
same,T/C,"dose: 300.0 mg/kg/injection, schedule: Q04DX003 (ip), vehicle: saline",95 % of control
COc1ccc(CN2CCCN(Cc3ccc(OC)cc3)C2c2ccc(OC)cc2)cc1,T/C,"dose: 100.0 mg/kg/injection, schedule: Q01DX009 (ip), vehicle: saline with Tween-80",92 % of control
same,T/C,[9],94 % of control
same,T/C,"dose: 200.0 mg/kg/injection, schedule: Q01DX009 (ip), vehicle: saline with Tween-80",98 % of control and 87 % of control
same,T/C,[10],97 % of control
same,T/C,"dose: 400.0 mg/kg/injection, schedule: Q01DX009 (ip), vehicle: saline with Tween-80",96 % of control
same,T/C,[11],95 % of control
N#CC(c1cccnc1)N1CCOCC1 (stereo unspecified),T/C,"dose: 25.0 mg/kg/injection, schedule: Q04DX002 (ip), vehicle: saline with Tween-80",103 % of control
same,T/C,"dose: 50.0 mg/kg/injection, schedule: Q04DX002 (ip), vehicle: saline with Tween-80",100 % of control
same,T/C,"dose: 100.0 mg/kg/injection, schedule: Q04DX002 (ip), vehicle: saline with Tween-80",96 % of control
CC(=O)OC1CCC2(C)C3CCC4(C)C(C(C)/C=C/C(C)C(C)C)CCC4C34C=CC2(C1)C1C(=O)OC(=O)C14 (stereo unspecified),T/C,"dose: 100.0 mg/kg/injection, schedule: Q04DX002 (ip), vehicle: saline",93 % of control
same,T/C,"dose: 200.0 mg/kg/injection, schedule: Q04DX002 (ip), vehicle: saline",96 % of control
same,T/C,"dose: 400.0 mg/kg/injection, schedule: Q04DX002 (ip), vehicle: saline",89 % of control
C=C1C(=O)OC2/C=C(\C)CC/C=C(/C=O)C(OC)C(OC(=O)C(C)C)C12 (stereo unspecified),T/C,"dose: 6.25 mg/kg/injection, schedule: Q01DX009 (ip), vehicle: Klucel (hydroxypropylcellulose) (HPC)",95 % of control
same,T/C,"dose: 12.5 mg/kg/injection, schedule: Q01DX009 (ip), vehicle: Klucel (hydroxypropylcellulose) (HPC)",100 % of control
same,T/C,"dose: 25.0 mg/kg/injection, schedule: Q01DX009 (ip), vehicle: Klucel (hydroxypropylcellulose) (HPC)",101 % of control
CN(C)C(=O)c1ccccc1Cl,T/C,[9],92 % of control
same,T/C,[10],94 % of control
same,T/C,[11],105 % of control
CC(C)=C(c1ccc(Cl)cc1)c1c(Cl)ncnc1Cl,T/C,[1],101 % of control
same,T/C,[2],102 % of control
same,T/C,"dose: 400.0 mg/kg/injection, schedule: Q04DX003 (ip), vehicle: saline with Tween-80",104 % of control
CCCCCCCCCCCCCCCC[N+]1(CCCC)CCOCC1,T/C,"dose: 100.0 mg/kg/injection, schedule: Q04DX003 (ip), vehicle: Klucel (hydroxypropylcellulose) (HPC)",86 % of control
same,T/C,"dose: 200.0 mg/kg/injection, schedule: Q04DX003 (ip), vehicle: Klucel (hydroxypropylcellulose) (HPC)",101 % of control
CC1CC(C)(C)N=C(C(C)(C)c2ccccc2)O1 (stereo unspecified),T/C,"dose: 100.0 mg/kg/injection, schedule: Q04DX003 (ip), vehicle: saline sonified",102 % of control
same,T/C,"dose: 200.0 mg/kg/injection, schedule: Q04DX003 (ip), vehicle: saline sonified",103 % of control
same,T/C,"dose: 400.0 mg/kg/injection, schedule: Q04DX003 (ip), vehicle: saline sonified",98 % of control
